According to patent US12663415B2, “Chromogenic and fluorogenic compounds and their use for biological detection” (AAT Bioquest, Inc., priority 2022, dated 2026):
Starred links: 1 amine or outer side, 2 acyl side, 3 side chain; linkers in the order of their positions; H or OH if unused. Positions of bridges follow the written chain, without caps; N, C: chain ends. Residues, ends and D or L forms follow the SMILES beside them. Chains are numbered I, II in the order given. Rhodamine110 = O=C1OC2(c3ccc(N[*:1])cc3Oc3cc(N[*:2])ccc32)c2ccccc21

Legend:
E. coli endotoxin = assay: Detection of endotoxin with Limulus Amebocyte Lysate (LAL) and fluorogenic substrate; assay type: biochemical; conditions: Ex/Em=490/525 nm
Description: FIG. 5. Illustrates the detection of E. coli endotoxin with an exemplary compound. E. coli endotoxin is measured in a black/solid bottom 96-well plate with Compound 7. The fluorescence intensity is recorded using a Gemini microplate reader at Ex/Em=490/525 nm, cutoff=515 nm. As low as 0.001 EU/mL of E. coli endotoxin can be detected.
Endotoxin is the major component of the outer membrane of Gram-negative bacteria. endotoxin is a potent stimulator of the vertebrate innate immune system and can cause fever, septic shock and eventually death. It is recognized as a biomarker for the detection of bacterial pathogen invasion and is responsible for the development of inflammatory response and endotoxic shock in extreme cases. […] The LAL enzymatic cascade can be activated by endotoxin at pH 6.0 to 7.5, and the amount of activated enzyme present can be measured by its ability to cleave the fluorogenic and/or chromogenic substrate. […] The endotoxin activity is proportional to the fluorescence intensity of rhodamine 110 resulting from the hydrolysis of Compound 7. The concentration of endotoxin in a sample can be calculated from a standard curve. […] The fluorescence intensities of the test sample solutions are recorded with a fluorescence microplate reader at Ex/Em=490/525 nm within 10-30 minutes.

Caspase 3/7 = assay: Detection of apoptosis / caspase 3/7 activities in Jurkat cells, whole cell assay; assay type: cell-based; conditions: staurosporine 0.5 μg/ml 2 hours, 50 μM substrate 2 hours at 37° C., Ex/Em=540/620 nm
Description: FIG. 3. Illustrates the detection of Caspase 3/7 activities in Jurkat cells with Compound 4. Jurkat cells are seeded on the same day at 200,000 cells/90 μL/well in a Costar black wall/clear bottom 96-well plate. The cells are treated with or without 1 μM of staurosporine for 5 hours. The caspase 3/7 working solution (100 μL/well) are added and incubated at room temperature for 1 hour. The fluorescence intensity is measured at Ex/Em=540/620 nm (Cutoff=610 nm) with FlexStation fluorescence microplate reader.
Jurkat T leukemia cells are grown in RPMI 1640 media (Life Technologies, Inc.) and 10% FCS (Sigma Chemical Company) in a 5% CO2-95% humidity incubator at 37° C., and maintained at a cell density between 4 and 8×10^5 cells/ml. Cells were harvested at 200×g and resuspended at 1×10^6 cells/ml into RPMI 1640 media containing 10% FCS and 1 ml each were dispensed in 2-wells of a 6-well plate. The apoptosis inducer staurosporine is added at 0.5 μg/ml concentration and the plate is incubated for 2 hours at 37° C. in a 5% CO2-95% humidity incubator. Cells are incubated with 50 μM of substrate Compound 4 for 2 hours at 37° C. in serum-free RPMI medium. The samples are analyzed with a fluorescence microplate reader (top or bottom read mode) at Ex/Em=540/620 nm (Cutoff=610 nm).

CCC(C)C(NC(C)=O)C(=O)NC(CCC(=O)O)C(=O)NC(C)C(=O)NC(CCCNC(=N)N)C(=O)Nc1ccc2c(c1)Oc1cc(NC(=O)C(CCCNC(=N)N)NC(=O)C(C)NC(=O)C(CCC(=O)O)NC(=O)C(NC(C)=O)C(C)CC)ccc1C21OC(=O)c2ccccc21 (stereo not drawn) [Compound 7] (I: Ac-IEAR / II: Ac-IEAR; linker I:C-II:C via Rhodamine110; configuration not given here)
lowest detectable E. coli endotoxin (E. coli endotoxin; 96-well plate, cutoff=515 nm): 0.001 EU/mL
fluorescence of hydrolyzed product (rhodamine 110) after hydrolysis by LAL in the presence of endotoxins (E. coli endotoxin; LAL 100 U, 10 uM substrate): strong green fluorescence

Compound 4 (DVED)
cleavage of the caspase-3/7 substrate on induction of apoptosis (Caspase 3/7): leads to cleavage
